This assay has as its target T1, Formyl peptide receptor 1 (FPR1) (Homo sapiens, UniProt P21462).
T1 construct: human neutrophils; also hFPR1 (NM_002029)-transfected HEK-293 and differentiated THP-1 cells
T1 sequence (P21462 1-350): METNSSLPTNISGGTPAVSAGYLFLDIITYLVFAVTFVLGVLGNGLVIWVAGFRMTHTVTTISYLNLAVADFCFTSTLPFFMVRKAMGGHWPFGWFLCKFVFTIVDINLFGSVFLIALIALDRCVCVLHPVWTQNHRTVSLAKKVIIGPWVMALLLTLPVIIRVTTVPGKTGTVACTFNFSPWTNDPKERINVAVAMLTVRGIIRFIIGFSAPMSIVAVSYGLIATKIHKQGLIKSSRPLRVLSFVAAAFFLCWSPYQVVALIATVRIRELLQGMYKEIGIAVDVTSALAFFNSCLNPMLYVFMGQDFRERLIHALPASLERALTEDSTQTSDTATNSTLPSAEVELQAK
Kind of assay: displacement of fluorescent FPR1 ligand fNLFNYK on intact cells, flow cytometry. The assay is classed as cell-based. A general note: Flow cytometry measures light scatter and fluorescence of single cells or particles in a stream.

The IC50 is the concentration that inhibits the measured activity by half. Lower therefore signals greater potency in that assay. As for `C=CCc1ccc(O)c(-c2ccc(O)c(CC=C)c2)c1` [H, Honokiol], the half-inhibitory concentration (IC50) amounted to 7.44 ± 0.97 µM.

(Values after publication PMC5532207, “Honokiol suppresses formyl peptide-induced human neutrophil activation by blocking formyl peptide receptor 1” (Scientific Reports, 2017).)
